# Reference: patent US8865138B2, “Melanin modification compositions and methods of use” (Allergan, Inc., priority 2011, dated 2014)
# Tested on: PGF2 alpha
# Assay: Inhibition of prostaglandin F2 alpha levels in UVB-exposed keratinocytes (ELISA)
# Assay type: cell-based
# Details: UVB-induced human keratinocytes; PGF2 alpha measured by ELISA 24 hours post-treatment; FIG. 1
# Method: Human keratinocytes were harvested and exposed to with UVB light to induce PGF2 alpha release. Following exposure to UVB irradiation, the cells were treated with a composition comprising 1% 4-ethoxybenzaldehyde, Indomethacin (positive control) or left untreated (negative control). After 24 hours post-treatment, PGF2 alpha levels were measured by ELISA analysis.
structure (smiles),measurement,value
CCOc1ccc(C=O)cc1 [4-ethoxybenzaldehyde],inhibition of PGF2 alpha,dose-dependent inhibition
